In the supplement of paper PMC10307832:

How the values were obtained:
Experiment in all cases: relative viability (nuclei count vs DMSO), 5 days (fraction); higher = more cells survive
[1] = compound: COc1cc2ncn(-c3cc(OCc4ccccc4C(F)(F)F)c(C(N)=O)s3)c2cc1OC + C[C@@H](Oc1cc(-c2cnn(C3CCNCC3)c2)cnc1N)c1c(Cl)ccc(F)c1Cl [Crizotinib] (partner 1 µM)
Summary of the method: (§1)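 Lung cancer cell lines in 1536-well plates were dosed by pin tool the day after seeding, either with one drug alone or with a fixed anchor-drug dose plus five library-drug doses (not always all listed) in √10 steps. After 5 days, cells were fixed and their nuclei stained in one step (final 0.05% Triton X-100, 1% formaldehyde, 1 ug/ml Hoechst), then counted on 4× images. Relative viability is the nuclei count in treated wells divided by that in vehicle wells. Values are medians of duplicate plates.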

[2] = compound: COc1cc2ncn(-c3cc(OCc4ccccc4C(F)(F)F)c(C(N)=O)s3)c2cc1OC + COc1cccc2cc(-c3nc([C@H]4CC[C@H](C(=O)O)CC4)n4ncnc(N)c34)[nH]c12 [OSI-027] (partner 0.5 µM)
Summary of the method: as §1

[3] = compound: COc1cc2ncn(-c3cc(OCc4ccccc4C(F)(F)F)c(C(N)=O)s3)c2cc1OC + C[C@]1(O)C[C@@H](c2nc(-c3ccc4ccc(-c5ccccc5)nc4c3)c3c(N)nccn32)C1 [Linsitinib] (partner 1 µM)
Summary of the method: as §1

[4] = compound: COc1cc2ncn(-c3cc(OCc4ccccc4C(F)(F)F)c(C(N)=O)s3)c2cc1OC + Cc1cc(Nc2cc(N3CCN(C)CC3)nc(Sc3ccc(NC(=O)C4CC4)cc3)n2)n[nH]1 [Tozasertib] (partner 0.1 µM)
Summary of the method: as §1

Cell Line	relative viability ([1]; first compound 0.05 µM)	relative viability ([1]; first compound 0.1581 µM)	relative viability ([1]; first compound 0.5 µM)	relative viability ([1]; first compound 1.581 µM)	relative viability ([1]; first compound 5 µM)	relative viability ([2]; first compound 0.05 µM)	relative viability ([2]; first compound 0.1581 µM)	relative viability ([2]; first compound 0.5 µM)	relative viability ([2]; first compound 1.581 µM)	relative viability ([2]; first compound 5 µM)	relative viability ([3]; first compound 0.05 µM)	relative viability ([3]; first compound 0.1581 µM)	relative viability ([3]; first compound 0.5 µM)	relative viability ([3]; first compound 1.581 µM)	relative viability ([3]; first compound 5 µM)	relative viability ([4]; first compound 0.05 µM)	relative viability ([4]; first compound 0.1581 µM)	relative viability ([4]; first compound 0.5 µM)	relative viability ([4]; first compound 1.581 µM)	relative viability ([4]; first compound 5 µM)
BEN	0.814	0.839	0.687	0.268	0.526	0.272	0.307	0.278	0.205	0.233	0.931	0.875	0.648	0.235	0.297	0.514	0.498	0.5	0.56	0.47
COR-L 105	0.978	0.831	0.658	0.215	0.264	0.591	0.823	0.526	0.298	0.211	1.13	0.935	0.713	0.42	0.306	0.43	0.383	0.392	0.284	0.277
ABC-1	1.34	0.988	0.875	0.152	0.291	0.629	0.437	0.248	0.207	0.191	0.862	0.874	0.582	0.302	0.218	0.219	0.223	0.155	0.251	0.255
HCC-15	0.855	0.716	0.461	0.152	0.11	0.713	0.635	0.269	0.127	0.104	0.865	0.828	0.557	0.14	0.13	0.509	0.394	0.138	0.151	0.139
RERF-LC-KJ	0.813	0.887	0.766		0.545	0.534	0.494	0.226	0.205	0.253	0.806	0.901	0.559		0.357	0.476	0.646	0.247	0.248	0.257
NCI-H1993	0.898	0.877	0.693	0.58	0.614	0.477	0.549	0.429	0.438	0.491	0.835	0.782	0.572	0.56	0.528	0.581	0.613	0.566	0.637	0.661
NCI-H358	0.481	0.575	0.164	0.132	0.213	0.744	0.726	0.549	0.0578	0.067	0.693	0.678	0.349	0.155	0.141	0.0899	0.0976	0.118	0.0944	0.0929
NCI-H1915	0.916	0.898	0.639	0.123	0.102	0.657	0.543	0.321	0.136	0.114	1.09	1.05	0.795	0.169	0.106	0.499	0.515	0.352	0.166	0.142
